The numbers were not newly measured in patent US12409146B2, “Solid lipid nanoparticle for intracellular release of active substances and method for production the same” (LEAD BIOTHERAPEUTICS LTD, priority 2017, dated 2025), which cites them from elsewhere.

≈ marks a conversion by molar mass, not a printed value.

In the case of `C[C@@H]1C[C@H]2[C@@H]3CCC4=CC(=O)C=C[C@]4(C)[C@@]3(Cl)[C@@H](O)C[C@]2(C)[C@@]1(OC(=O)c1ccco1)C(=O)CCl` [Mometasone furoate], the water solubility is 5.23 µg/mL (≈ 10 µM).
